Active and inactive are the calls of the source. The rule behind the calls is not given here.
How the values were obtained:
Format in all cases: protein assay
[1] = target: T1, Alpha-1,2-mannosidase family protein (BT_4093) (Bacteroides thetaiotaomicron) (UniProt Q8A0C8); assay: Activity of Bacteroides thetaiotaomicron GH92 alpha-mannosidase GH92 alpha-mannosidase 4093 assessed as mannose release at 1 mM after 16 hrs by HPLC relative to untreated control after 16 hrs by HPLC
T1 sequence (whole entry): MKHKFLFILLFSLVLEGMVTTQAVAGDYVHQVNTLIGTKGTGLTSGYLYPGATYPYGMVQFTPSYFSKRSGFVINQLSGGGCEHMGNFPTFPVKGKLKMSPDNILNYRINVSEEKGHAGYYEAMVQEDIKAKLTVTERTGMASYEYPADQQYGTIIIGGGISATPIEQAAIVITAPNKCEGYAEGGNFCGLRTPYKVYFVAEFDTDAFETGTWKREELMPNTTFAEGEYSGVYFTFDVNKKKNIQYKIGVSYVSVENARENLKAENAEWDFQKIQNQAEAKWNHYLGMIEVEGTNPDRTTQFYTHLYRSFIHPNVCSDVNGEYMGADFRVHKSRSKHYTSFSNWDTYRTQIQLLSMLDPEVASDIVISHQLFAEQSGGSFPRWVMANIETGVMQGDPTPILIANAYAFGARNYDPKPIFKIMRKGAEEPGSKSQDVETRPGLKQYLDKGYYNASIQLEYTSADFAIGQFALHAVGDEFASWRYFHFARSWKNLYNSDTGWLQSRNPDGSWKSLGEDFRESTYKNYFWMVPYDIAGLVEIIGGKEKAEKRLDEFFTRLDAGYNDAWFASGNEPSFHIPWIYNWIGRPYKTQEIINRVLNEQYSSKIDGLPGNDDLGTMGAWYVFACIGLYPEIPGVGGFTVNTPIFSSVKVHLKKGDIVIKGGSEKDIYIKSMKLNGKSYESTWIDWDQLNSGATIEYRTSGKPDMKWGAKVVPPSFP

[2] = target: T2, Alpha-1,2-mannosidase family protein (BT_1032) (Bacteroides thetaiotaomicron) (UniProt Q8A8Y5); assay: Activity of Bacteroides thetaiotaomicron GH92 alpha-mannosidase 1032 assessed as mannose release at 1 mM after 16 hrs by HPLC relative to untreated control
T2 sequence (whole entry): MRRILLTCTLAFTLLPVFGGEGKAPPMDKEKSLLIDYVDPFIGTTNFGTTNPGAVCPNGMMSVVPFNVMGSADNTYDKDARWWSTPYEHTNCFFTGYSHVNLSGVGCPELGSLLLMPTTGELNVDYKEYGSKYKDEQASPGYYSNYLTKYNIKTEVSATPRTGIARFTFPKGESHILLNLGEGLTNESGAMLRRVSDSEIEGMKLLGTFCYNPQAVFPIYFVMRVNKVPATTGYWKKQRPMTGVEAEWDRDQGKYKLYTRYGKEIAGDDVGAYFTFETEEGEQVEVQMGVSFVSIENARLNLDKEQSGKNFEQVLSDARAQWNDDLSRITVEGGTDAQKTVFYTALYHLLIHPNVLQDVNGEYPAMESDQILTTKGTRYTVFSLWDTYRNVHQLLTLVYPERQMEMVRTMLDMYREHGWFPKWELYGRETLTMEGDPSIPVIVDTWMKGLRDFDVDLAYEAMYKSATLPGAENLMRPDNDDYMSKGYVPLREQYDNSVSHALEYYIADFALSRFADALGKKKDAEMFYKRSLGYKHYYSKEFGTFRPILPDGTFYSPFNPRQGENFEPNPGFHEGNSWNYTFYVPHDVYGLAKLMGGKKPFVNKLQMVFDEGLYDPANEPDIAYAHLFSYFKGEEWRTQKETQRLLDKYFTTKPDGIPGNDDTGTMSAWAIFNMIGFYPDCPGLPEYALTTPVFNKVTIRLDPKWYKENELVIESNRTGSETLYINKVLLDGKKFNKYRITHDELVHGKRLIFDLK

[3] = target: T3, Alpha-1,2-mannosidase (BT_4092) (Bacteroides thetaiotaomicron) (UniProt Q8A0C9); assay: Activity of Bacteroides thetaiotaomicron GH92 alpha-mannosidase GH92 alpha-mannosidase 4092 assessed as mannose release at 1 mM after 16 hrs by HPLC relative to untreated control after 16 hrs by HPLC
T3 sequence (whole entry): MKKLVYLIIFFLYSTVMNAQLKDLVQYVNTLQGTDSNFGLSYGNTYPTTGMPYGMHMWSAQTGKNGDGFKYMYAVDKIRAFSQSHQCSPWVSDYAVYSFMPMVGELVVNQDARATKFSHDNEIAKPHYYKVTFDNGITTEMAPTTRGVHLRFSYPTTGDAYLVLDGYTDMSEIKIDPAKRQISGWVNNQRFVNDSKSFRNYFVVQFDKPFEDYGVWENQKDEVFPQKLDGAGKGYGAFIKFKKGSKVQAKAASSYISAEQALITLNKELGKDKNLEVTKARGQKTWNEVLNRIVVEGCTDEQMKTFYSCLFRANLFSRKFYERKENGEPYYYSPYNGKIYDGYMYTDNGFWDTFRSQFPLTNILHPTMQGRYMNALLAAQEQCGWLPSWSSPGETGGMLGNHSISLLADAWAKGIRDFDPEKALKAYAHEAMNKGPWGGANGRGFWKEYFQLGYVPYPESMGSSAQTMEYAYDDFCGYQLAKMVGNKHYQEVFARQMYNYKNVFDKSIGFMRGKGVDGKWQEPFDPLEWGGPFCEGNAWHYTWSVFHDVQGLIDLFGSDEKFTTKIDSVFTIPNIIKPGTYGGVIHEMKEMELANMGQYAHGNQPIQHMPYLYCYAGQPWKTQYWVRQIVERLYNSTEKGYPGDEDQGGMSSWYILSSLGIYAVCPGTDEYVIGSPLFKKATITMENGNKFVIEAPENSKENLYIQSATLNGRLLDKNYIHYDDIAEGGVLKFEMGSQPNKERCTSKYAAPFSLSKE

Row | Activity [1] | Activity [2] | Activity [3] | Structure (SMILES)
1 | inactive | inactive | inactive | OC[C@H]1O[C@H](OC[C@H]2O[C@H](O)[C@@H](O)[C@@H](O)[C@@H]2O)[C@@H](O)[C@@H](O)[C@@H]1O
2 | inactive | inactive | 100% | OC[C@H]1O[C@H](O[C@H]2[C@@H](O)[C@H](O)[C@@H](CO)O[C@@H]2O)[C@@H](O)[C@@H](O)[C@@H]1O
3 | inactive | inactive | 0.34% | OC[C@H]1O[C@H](O[C@@H]2[C@H](O)[C@@H](O)O[C@H](CO)[C@H]2O)[C@@H](O)[C@@H](O)[C@@H]1O
4 | 100% | inactive | 0.73% | OC[C@H]1O[C@H](O[C@H]2[C@H](O)[C@H](O)[C@@H](O)O[C@@H]2CO)[C@@H](O)[C@@H](O)[C@@H]1O
